pEC50: −log10 of the molar value.
Experiments:
Hippocampal Cultures [1] = test: Neuroprotection from glutamate (excitotoxicity), CFDA assay; format: cell-based; settings: Rattus norvegicus, read-out: NP from Glutamate CFDA EC50
Excerpt: (§1) Cell cultures: All compounds are screened with dissociated hippocampal cultures derived from embryonic day 18 rats as the primary test system. With this preparation, primary neurons are used to test for toxicity as well as neuroprotection in a highly relevant experimental system to epilepsy. In brief, hippocampal tissue are obtained commercially through Brain Bits (Springfield, Ill.) and cultures prepared as previously described by Brewer (Brewer, G. J. Serum-free B27/neurobasal medium supports differentiated growth of neurons from the striatum, substantia nigra, septum, cerebral cortex, cerebellum and dentate gyms, J. Neurosci. Res. 1995, 42, 674-683.). The hippocampal neurons are platted at low density (10,000 cell/well) in a 96-well format and maintained in serum-free medium consisting of Neurobasal Medium supplemented with B27 and GlutaMAX (Gibco). Pre-coated poly-L-lysine coated plates are used because of the preferential adherence and survival of hippocampal neurons on this matrix support.
(§2) Potent neuroprotection is the distinguishing characteristic that separates this program's anticonvulsants from all other commercial drugs for epilepsy. The experimental details and the rationale for the implemented assays are essential in differentiating these compounds from that of others. The central objective of all neuroprotective assays was their relevancy to excitotoxicity and oxidative stress related to epilepsy. Both the amount of glutamate and hydrogen peroxide used in the assays, as well as the time of treatment and duration of the experiment, were designed to be relevant to epilepsy. Further, all time parameters employed in these studies were empirically determined to be within the limits of reversible toxic events, yet using amounts of glutamate and hydrogen peroxide that were relevant to the disease. In regard to glutamate toxicity, a critical feature was the duration of treatment of the hippocampal neurons. The rational for using a short 5 min treatment with glutamate was based on the observation of Randall and Thayer (Randall, R. D.; Thayer, S. A. Glutamate-induced calcium transient triggers calcium overload and neurotoxicity in rat hippocampal neurons, J. Neurosci. 1992, 12, 1882-1895). […] The rationale is that this intense burst of glutamate and resulting calcium overload is relevant to seizures and therefore was important data to capture in the screening assay. The amount of glutamate (30 μM) employed in our screening was based on the basal levels of glutamate observed in microdialysis measurements of hippocampus from epileptogenic patients (Cavus et al. Decreased hippocampal volume on MRI is associated with increased extracellular glutamate in epilepsy patients, Epilepsia, 2008, 49, 1358-1366.). In regard to hydrogen peroxide, the amount employed (10 μM) was detected in the hippocampus of rats after kainate-induced status epilepticus (Jarrett et. al., Mitochondrial DNA damage and impaired base excision repair during epileptogenesis, Neurobiol. Dis. 2008, 30, 130-138). To produce neural damage and death with these amounts of glutamate and hydrogen peroxide, the cultures were changed to a medium with significant depletion of antioxidant components in the defined medium supplement B-27 just prior to treatment with the compounds. This was performed to obtain a significant and reproducible toxic signal in the hippocampal neurons and because loss of antioxidant control may be a component of epileptogenesis (Waldbaum and Patel, Mitochondria, oxidative stress and temporal lobe epilepsy, Epilepsy Res. 2010 88, 23-45.; Wu et al., Mitochondrial DNA mutation-elicited oxidative stress, oxidative damage, and altered gene expression in cultured cells of patients with MERRF syndrome, Mol. Neurobiol. 2010, 41, 256-266.). Neuroprotection studies with hydrogen peroxide were conducted with cultures that were between day 12 and day 18. Studies of neuroprotection glutamate were conducted between day 19 and day 22. […]

mice = test: Maximal Electroshock Test (anti-seizure test); format: in vivo
Excerpt: Seizure-related assays, Maximal electroshock test: The most definitive assay for antiseizure activity is the maximal electroshock (MES) test (Swinyard, E. A. Laboratory evaluation of antiepileptic drugs: review of laboratory methods, Epilepsia, 1969, 10, 107-119.). […] With both rodent assays, the duration of action is of high importance as well as the potency of the response.

Hippocampal Cultures [2] = test: Neuroprotection from hydrogen peroxide (oxidative stress), CFDA assay; format: cell-based; settings: Rattus norvegicus, read-out: NP from HP CFDA EC50
Excerpt: as §1, §2

Hippocampal Cultures [3] = test: Neuroprotection from glutamate (excitotoxicity), propidium iodide assay; format: cell-based; settings: Rattus norvegicus, read-out: NP from Glutamate PI EC50
Excerpt: as §1, §2

Hippocampal Cultures [4] = test: Neuroprotection from hydrogen peroxide (oxidative stress), propidium iodide assay; format: cell-based; settings: Rattus norvegicus, read-out: NP from HP PI EC50
Excerpt: as §1, §2

[5] = 30 μM glutamate, hippocampal cultures, CFDA (neuronal viability)
[6] = 10 μM hydrogen peroxide, hippocampal cultures, CFDA (neuronal viability)
[7] = 30 μM glutamate, hippocampal cultures, propidium iodide (cell death)
[8] = 10 μM hydrogen peroxide, hippocampal cultures, propidium iodide (cell death)

Compound | pEC50 (Hippocampal Cultures [1]; [5]) | MES Duration (mice; no dose given) | pEC50 (Hippocampal Cultures [2]; [6]) | pEC50 (Hippocampal Cultures [3]; [7]) | pEC50 (Hippocampal Cultures [4]; [8]) | pEC50 (Hippocampal Cultures [1]) | pEC50 (Hippocampal Cultures [2]) | pEC50 (Hippocampal Cultures [3]) | pEC50 (Hippocampal Cultures [4]) | MES Duration (mice; at 100 mg/kg)
NS(=O)(=O)NCCC(O)c1ccccc1Cl (stereo not shown) [Example 1, 3-(2-Chloro-phenyl)-3-hydroxypropyl-1-sulfamide] | 7.00 | 2 h | 4.52 | 7.00 | 6.00 | – | – | – | – | –
NS(=O)(=O)NCCC(O)c1csc2ccccc12 (stereo not shown) [Example 2, 3-Benzo[b]thiophen-3-yl-3-hydroxypropyl-1-sulfamide] | – | – | – | – | – | 4.00 | 5.52 | 5.52 | 4.52 | –
CC(O)(CCNS(N)(=O)=O)c1ccccc1Cl (stereo not shown) [Example 3, 3-(2-Chloro-phenyl)-3-hydroxybutanyl-1-sulfamide] | – | – | – | – | – | < 3.52 | 3.52 | < 3.52 | < 3.52 | –
CC(C)(CNS(N)(=O)=O)C(O)c1ccccc1F (stereo not shown) [Example 5, 3-(2-Fluoro-phenyl)-3-hydroxy-2,2-dimethylpropyl-1-sulfamide] | – | – | – | – | – | 7.00 | < 3.52 | 7.00 | < 3.52 | –
NS(=O)(=O)NCCC(O)c1ccccc1F (stereo not shown) [Example 6, 3-(2-Fluoro-phenyl)-3-hydroxypropyl-1-sulfamide] | 6.00 | – | 8.00 | 7.00 | 8.00 | – | – | – | – | 4 hr at 100 mg/kg
NS(=O)(=O)NCCC(O)c1cc(F)ccc1F (stereo not shown) [Example 7, 3-(2,5-Difluoro-phenyl)-3-hydroxypropyl-1-sulfamide] | – | – | – | – | – | 4.52 | 8.00 | 5.52 | 9.00 | –
NS(=O)(=O)NCCC(O)c1ccc(F)cc1Cl (stereo not shown) [Example 8, N-[3-(2-Chloro-4-fluoro-phenyl)-3-hydroxy-propyl]-sulfamide] | < 3.52 | – | < 3.52 | 5.00 | < 3.52 | – | – | – | – | –
NS(=O)(=O)NCCC(O)c1ccccc1 (stereo not shown) [Example 9, N-(3-phenyl-3-hydroxy-propyl)-sulfamide] | 3.52 | – | < 3.52 | < 3.52 | < 3.52 | – | – | – | – | –
CC(O)(CCNS(N)(=O)=O)c1ccccc1F (stereo not shown) [Example 10, N-[3-(2-Fluoro-phenyl)-3-hydroxy-butyl]-sulfamide] | 5.00 | – | 7.00 | 5.00 | 3.52 | – | – | – | – | –
Cc1ccccc1C(O)CCNS(N)(=O)=O (stereo not shown) [Example 11, 3-(2-Methyl-phenyl)-3-hydroxypropyl-1-sulfamide] | < 3.52 | – | – | < 3.52 | – | – | – | – | – | –
CCc1ccccc1C(O)CCNS(N)(=O)=O (stereo not shown) [Example 12, 3-(2-Ethyl-phenyl)-3-hydroxypropyl-1-sulfamide] | 8.00 | – | < 3.52 | 5.00 | 8.00 | – | – | – | – | –
NS(=O)(=O)NCCC(O)c1ccccc1Br (stereo not shown) [Example 13, 3-(2-bromo-phenyl)-3-hydroxypropyl-1-sulfamide] | 5.00 | – | 3.52 | 4.00 | 5.00 | – | – | – | – | –
COc1ccccc1C(O)CCNS(N)(=O)=O (stereo not shown) [Example 14, 3-(2-methoxy-phenyl)-3-hydroxypropyl-1-sulfamide] | – | – | – | – | – | 8.00 | 5.00 | 7.00 | 8.00 | –
NS(=O)(=O)NCC[C@H](O)c1ccccc1F [Example 15, (S)-3-(2-Fluoro-phenyl)-3-hydroxypropyl-1-sulfamide] | – | – | – | – | – | 8.00 | 9.00 | 8.00 | 9.00 | 4 hrs at 100 mg/kg
NS(=O)(=O)NCC[C@@H](O)c1ccccc1F [Example 16, (R)-3-(2-Fluoro-phenyl)-3-hydroxypropyl-1-sulfamide] | – | – | – | – | – | – | < 3.52 | – | < 3.52 | –
NS(=O)(=O)NCC[C@@H](O)c1ccccc1Cl [Example 17, (R)-3-(2-Chloro-phenyl)-3-hydroxypropyl-1-sulfamide] | – | – | < 3.52 | – | < 3.52 | – | – | – | – | –
NS(=O)(=O)NCC[C@H](O)c1ccccc1Cl [Example 18, (S)-3-(2-Chloro-phenyl)-3-hydroxypropyl-1-sulfamide] | 6.00 | – | 9.00 | 7.00 | 9.00 | – | – | – | – | –
NS(=O)(=O)N1CCC(O)(c2ccccc2F)CC1 [Example 19, 4-(2-Fluorophenyl)-4-hydroxypiperidine-1-sulfonamide] | 6.00 | – | 6.00 | 9.00 | 6.00 | – | – | – | – | 6 hrs at 100 mg/kg
NS(=O)(=O)NCCC(O)c1ccccc1C(F)(F)F (stereo not shown) [Example 20, 3-(2-Trifluoromethyl-phenyl)-3-hydroxypropyl-1-sulfamide] | – | – | – | – | – | < 3.52 | – | < 3.52 | – | –
NS(=O)(=O)NCCC(O)c1ccccc1[N+](=O)[O-] (stereo not shown) [Example 21, 3-(2-Nitro-phenyl)-3-hydroxypropyl-1-sulfamide] | – | – | – | – | – | < 3.52 | – | 5.00 | – | –
NS(=O)(=O)NCCC(O)c1c(F)cccc1F (stereo not shown) [Example 22, 3-(2,6-Difluoro-phenyl)-3-hydroxypropyl-1-sulfamide] | – | – | – | – | – | 4.00 | 6.00 | 3.52 | 8.00 | –
NS(=O)(=O)NCCC(O)c1ccccc1-c1ccccc1 (stereo not shown) [Example 23, 3-(2-Phenyl-phenyl)-3-hydroxypropyl-1-sulfamide] | 5.00 | – | – | 3.52 | – | – | – | – | – | –
NS(=O)(=O)NCCC(O)c1ccccc1-c1cncc(Cl)c1 (stereo not shown) [Example 24, 3-[2-(5-Chloro-pyridine-3-yl)-phenyl]-3-hydroxypropyl-1-sulfamide] | 5.00 | – | – | < 3.52 | – | – | – | – | – | –

Source: US8609849B1, “Hydroxylated sulfamides exhibiting neuroprotective action and their method of use” (Fox Chase Chemical Diversity Center, Inc., priority 2010, dated 2013)
